Experimental data taken from patent US20100311694A1, “Set of Geldanamycin Derivatives and Their Preparation Methods” (Institute of Medicinal Biotechnology, Chinese Academy of …, priority 2008, published 2010).

Tests used:
HIV-1 = experiment: Anti HIV-1 activity (HIV-1 P24 antigen in cell cultures); assay type: cell-based; settings: 4 days after addition of the reagents
Protocol: Test Procedure of Anti HIV-1 Activity
8 reagent solutions of different diluted concentrations and positive control solutions are added into cell cultures in 96 well plate respectively. The sample of each diluted solutions is made duplicately and a control cell sample is also is set up. 100 μl of cell sample at a concentration of 2×10^5cells/ml is inoculated into the wells containing reagent in the plate. The cells samples are cultured in a saturated humidity culture chamber (at a 5% CO2 atmosphere) at 37° C. The pathological changes of cells are observed daily.

HBV = experiment: Anti-HBV activity (HBV DNA in cell lysate, spot hybridization); assay type: cell-based; settings: HBV DNA content of the cells, reagent solution changed every 4 days
Protocol: Test Procedure for Anti-HBV Activity
Using cell culture method, the preparation of the cells to be tested (100,000 cell's/mL) is inoculated into cell culture plate in 100 μl each well and the cells are cultured 24 h at 37° C. in 5% CO2. Tests are carried out when the cells grow into a monolayer. The target compounds as well as the controls are prepared into a series of solutions of appropriate concentrations using the culture medium and are added into 96 well culture plate respectively in 4 wells per one concentration. Then the reagent solution in each well is changed into the fresh reagent solution with the same concentration every 4 days. A cell control without reagent treatment is simultaneously is set up. The observation index is based upon the pathological changes of the cells by observing the degrees of the pathological changes of the cells under microscope every 8 days. […] Cell control without drug treatment is simultaneously is set up. The reagent solution or control medium in each well is changed into the fresh reagent solution or fresh medium respectively every 4 days. After cytolysis of the cells, HBV DNA is extracted from the cell lysis solution according to the molecular cloning technical procedure. The spots of different samples are hybridized and the A values of different hybridized spots are measured using autoradiograghic technique. The HBV DNA contents in the cell control as well as in the drug treated samples are calculated using the regression equations obtained from the standard curves to obtain half effective concentration values, the results are shown in Table 1.

Structure (SMILES)	Activity of HIV inhibition IC50 (HIV-1) [µg/mL]	Activity of HBV inhibition IC50 (HBV) [µg/mL]
COC1C=CC=C(C)C(=O)NC2=CC(=O)C(NCc3ccccn3)=C(CC(C)CC(OC)C(O)C(C)C=C(C)C1OC(N)=O)C2=O (stereo not drawn) [GM-W19]	28.90	3.4
COC1C=CC=C(C)C(=O)NC2=CC(=O)C(NCc3cccnc3)=C(CC(C)CC(OC)C(O)C(C)C=C(C)C1OC(N)=O)C2=O (stereo not drawn) [GM-W20]	26.42	6.89
COC1C=CC=C(C)C(=O)NC2=CC(=O)C(NC3CCc4ccccc43)=C(CC(C)CC(OC)C(O)C(C)C=C(C)C1OC(N)=O)C2=O (stereo not drawn) [GM-W21]	58.97	10.4
COC1C=CC=C(C)C(=O)NC2=CC(=O)C(NCC3CCCCN3)=C(CC(C)CC(OC)C(O)C(C)C=C(C)C1OC(N)=O)C2=O (stereo not drawn) [GM-W22]	1.37	3.2
COC1C=CC=C(C)C(=O)NC2=CC(=O)C(NCC3CCCNC3)=C(CC(C)CC(OC)C(O)C(C)C=C(C)C1OC(N)=O)C2=O (stereo not drawn) [GM-W23]	0.46	0.32
COC1C=CC=C(C)C(=O)NC2=CC(=O)C(NCC(=N)N)=C(CC(C)CC(OC)C(O)C(C)C=C(C)C1OC(N)=O)C2=O (stereo not drawn) [GM-W24]	0.11	0.01
COC1C=CC=C(C)C(=O)NC2=CC(=O)C(NCCOCCO)=C(CC(C)CC(OC)C(O)C(C)C=C(C)C1OC(N)=O)C2=O (stereo not drawn) [GM-W25]	0.43	0.32
COC1C=CC=C(C)C(=O)NC2=CC(=O)C(NCCNCCO)=C(CC(C)CC(OC)C(O)C(C)C=C(C)C1OC(N)=O)C2=O (stereo not drawn) [GM-W26]	0.21	0.64
COC1C=CC=C(C)C(=O)NC2=CC(=O)C(NCCC3CCN(Cc4ccccc4)CC3)=C(CC(C)CC(OC)C(O)C(C)C=C(C)C1OC(N)=O)C2=O (stereo not drawn) [GM-W27]	13.81	3.9
COC1C=CC=C(C)C(=O)NC2=CC(=O)C(NCCC3OCCO3)=C(CC(C)CC(OC)C(O)C(C)C=C(C)C1OC(N)=O)C2=O (stereo not drawn) [GM-W28]	0.21	0.10
COC1C=CC=C(C)C(=O)NC2=CC(=O)C(NCC3OCCO3)=C(CC(C)CC(OC)C(O)C(C)C=C(C)C1OC(N)=O)C2=O (stereo not drawn) [GM-W29]	0.67	6.4
CCN(CCNC1=C2CC(C)CC(OC)C(O)C(C)C=C(C)C(OC(N)=O)C(OC)C=CC=C(C)C(=O)NC(=CC1=O)C2=O)c1cccc(C)c1 (stereo not drawn) [GM-W30]	10.89	5.6
COC1C=CC=C(C)C(=O)NC2=CC(=O)C(NCCOC(C)C)=C(CC(C)CC(OC)C(O)C(C)C=C(C)C1OC(N)=O)C2=O (stereo not drawn) [GM-W31]	0.32	0.32
COC1C=CC=C(C)C(=O)NC2=CC(=O)C(NCCc3cccnc3)=C(CC(C)CC(OC)C(O)C(C)C=C(C)C1OC(N)=O)C2=O (stereo not drawn) [GM-W32]	0.48	6.4
COC1C=CC=C(C)C(=O)NC2=CC(=O)C(NN3CCN(C)CC3)=C(CC(C)CC(OC)C(O)C(C)C=C(C)C1OC(N)=O)C2=O (stereo not drawn) [GM-W35]	3.48	4.36
COC1C=CC=C(C)C(=O)NC2=CC(=O)C(NCC(O)c3ccccc3)=C(CC(C)CC(OC)C(O)C(C)C=C(C)C1OC(N)=O)C2=O (stereo not drawn) [GM-W36]	0.29	0.02
COC1C=CC=C(C)C(=O)NC2=CC(=O)C(NC3CCNCC3)=C(CC(C)CC(OC)C(O)C(C)C=C(C)C1OC(N)=O)C2=O (stereo not drawn) [GM-W37]	1.43	1.32
COC1C=CC=C(C)C(=O)NC2=CC(=O)C(NC3CCN(c4ccncc4)CC3)=C(CC(C)CC(OC)C(O)C(C)C=C(C)C1OC(N)=O)C2=O (stereo not drawn) [GM-W38]	1.59	0.64
COC1C=CC=C(C)C(=O)NC2=CC(=O)C(NCCO)=C(CC(C)CC(OC)C(O)C(C)C=C(C)C1OC(N)=O)C2=O (stereo not drawn) [GM-W42]	0.091	0.01
COC1C=CC=C(C)C(=O)NC2=CC(=O)C(NCCCN(CCO)CCO)=C(CC(C)CC(OC)C(O)C(C)C=C(C)C1OC(N)=O)C2=O (stereo not drawn) [GM-W43]	0.87	0.64

Structure (SMILES)	Activity of HIV inhibition IC50 (HIV-1) [µg/mL]	Activity of HBV inhibition IC50 (HBV) [µg/mL]
COC1C=CC=C(C)C(=O)NC2=CC(=O)C(NC(c3ccccc3)c3ccccc3)=C(CC(C)CC(OC)C(O)C(C)C=C(C)C1OC(N)=O)C2=O (stereo not drawn) [GM-W44]	>60	>100
COC1C=CC=C(C)C(=O)NC2=CC(=O)C(NCCCN(C)c3ccccc3)=C(CC(C)CC(OC)C(O)C(C)C=C(C)C1OC(N)=O)C2=O (stereo not drawn) [GM-W45]	<1.67	0.32
COC1C=CC=C(C)C(=O)NC2=CC(=O)C(NCCCN3CCOCC3)=C(CC(C)CC(OC)C(O)C(C)C=C(C)C1OC(N)=O)C2=O (stereo not drawn) [GM-W46]	1.32	1.49
COC1C=CC=C(C)C(=O)NC2=CC(=O)C(NCCCN3CCCCC3C)=C(CC(C)CC(OC)C(O)C(C)C=C(C)C1OC(N)=O)C2=O (stereo not drawn) [GM-W47]	1.84	3.87
COC1C=CC=C(C)C(=O)NC2=CC(=O)C(NCc3cccs3)=C(CC(C)CC(OC)C(O)C(C)C=C(C)C1OC(N)=O)C2=O (stereo not drawn) [GM-W50]	1.57	0.64
COC1C=CC=C(C)C(=O)NC2=CC(=O)C(NCCN3CCCC3)=C(CC(C)CC(OC)C(O)C(C)C=C(C)C1OC(N)=O)C2=O (stereo not drawn) [GM-W52]	0.65	0.32
COC1C=CC=C(C)C(=O)NC2=CC(=O)C(NCc3cc(O)co3)=C(CC(C)CC(OC)C(O)C(C)C=C(C)C1OC(N)=O)C2=O (stereo not drawn) [GM-W53]	0.37	0.46
COC1C=CC=C(C)C(=O)NC2=CC(=O)C(Nc3cnc(C)c(C)n3)=C(CC(C)CC(OC)C(O)C(C)C=C(C)C1OC(N)=O)C2=O (stereo not drawn) [GM-W57]	13.76	8.0
COC1C=CC=C(C)C(=O)NC2=CC(=O)C(NC(CO)C(C)C)=C(CC(C)CC(OC)C(O)C(C)C=C(C)C1OC(N)=O)C2=O (stereo not drawn) [GM-W58]	1.39	0.64
CCCCCC(NC1=C2CC(C)CC(OC)C(O)C(C)C=C(C)C(OC(N)=O)C(OC)C=CC=C(C)C(=O)NC(=CC1=O)C2=O)P(=O)(O)O (stereo not drawn) [GM-W62]	1.76	0.89
CCC(CO)(CO)NC1=C2CC(C)CC(OC)C(O)C(C)C=C(C)C(OC(N)=O)C(OC)C=CC=C(C)C(=O)NC(=CC1=O)C2=O (stereo not drawn) [GM-W63]	1.37	3.2
COC1C=CC=C(C)C(=O)NC2=CC(=O)C(NN3CCN(CCO)CC3)=C(CC(C)CC(OC)C(O)C(C)C=C(C)C1OC(N)=O)C2=O (stereo not drawn) [GM-W64]	3.75	8.6
COC1C=CC=C(C)C(=O)NC2=CC(=O)C(NCC3(O)CCCCC3)=C(CC(C)CC(OC)C(O)C(C)C=C(C)C1OC(N)=O)C2=O (stereo not drawn) [GM-W65]	6.81	3.1
COC1C=CC=C(C)C(=O)NC2=CC(=O)C(NN3CCOCC3)=C(CC(C)CC(OC)C(O)C(C)C=C(C)C1OC(N)=O)C2=O (stereo not drawn) [GM-W68]	10.46	4.6
COC1C=CC=C(C)C(=O)NC2=CC(=O)C(NC3CC(C)(C)N(C)C(C)(C)C3)=C(CC(C)CC(OC)C(O)C(C)C=C(C)C1OC(N)=O)C2=O (stereo not drawn) [GM-W69]	22.23	10.8
COC1C=CC=C(C)C(=O)NC2=CC(=O)C(NN3CCCCC3)=C(CC(C)CC(OC)C(O)C(C)C=C(C)C1OC(N)=O)C2=O (stereo not drawn) [GM-W72]	6.45	3.2
COC1C=CC=C(C)C(=O)NC2=CC(=O)C(NCC(O)CO)=C(CC(C)CC(OC)C(O)C(C)C=C(C)C1OC(N)=O)C2=O (stereo not drawn) [GM-W74]	0.47	8.9
COC1C=CC=C(C)C(=O)NC2=CC(=O)C(NCCCN3CCOCC3)=C(CC(C)CC(OC)C(O)C(C)C=C(C)C1OC(N)=O)C2=O (stereo not drawn) [GM-W75]	1.21	0.1
COC1C=CC=C(C)C(=O)NC2=CC(=O)C(NCCCN3CCCC3)=C(CC(C)CC(OC)C(O)C(C)C=C(C)C1OC(N)=O)C2=O (stereo not drawn) [GM-W76]	0.24	0.01
